{"source": "patent US20030144345A1", "about": "“Treatment of metabolic diseases with soraphen derivatives” (priority 2001, published 2003)", "key": {"human ACCβ enzyme": {"target": "T1, human ACCβ enzyme (Homo sapiens, UniProt O00763)", "T1 construct": "The cloning of the full length human muscle-type ACCβ cDNA and expression in HEK293 cells; made in house; host or cells: HEK293 cells (ATCC CRL-1573), plasmid pRF33D", "T1 sequence (O00763 whole entry)": "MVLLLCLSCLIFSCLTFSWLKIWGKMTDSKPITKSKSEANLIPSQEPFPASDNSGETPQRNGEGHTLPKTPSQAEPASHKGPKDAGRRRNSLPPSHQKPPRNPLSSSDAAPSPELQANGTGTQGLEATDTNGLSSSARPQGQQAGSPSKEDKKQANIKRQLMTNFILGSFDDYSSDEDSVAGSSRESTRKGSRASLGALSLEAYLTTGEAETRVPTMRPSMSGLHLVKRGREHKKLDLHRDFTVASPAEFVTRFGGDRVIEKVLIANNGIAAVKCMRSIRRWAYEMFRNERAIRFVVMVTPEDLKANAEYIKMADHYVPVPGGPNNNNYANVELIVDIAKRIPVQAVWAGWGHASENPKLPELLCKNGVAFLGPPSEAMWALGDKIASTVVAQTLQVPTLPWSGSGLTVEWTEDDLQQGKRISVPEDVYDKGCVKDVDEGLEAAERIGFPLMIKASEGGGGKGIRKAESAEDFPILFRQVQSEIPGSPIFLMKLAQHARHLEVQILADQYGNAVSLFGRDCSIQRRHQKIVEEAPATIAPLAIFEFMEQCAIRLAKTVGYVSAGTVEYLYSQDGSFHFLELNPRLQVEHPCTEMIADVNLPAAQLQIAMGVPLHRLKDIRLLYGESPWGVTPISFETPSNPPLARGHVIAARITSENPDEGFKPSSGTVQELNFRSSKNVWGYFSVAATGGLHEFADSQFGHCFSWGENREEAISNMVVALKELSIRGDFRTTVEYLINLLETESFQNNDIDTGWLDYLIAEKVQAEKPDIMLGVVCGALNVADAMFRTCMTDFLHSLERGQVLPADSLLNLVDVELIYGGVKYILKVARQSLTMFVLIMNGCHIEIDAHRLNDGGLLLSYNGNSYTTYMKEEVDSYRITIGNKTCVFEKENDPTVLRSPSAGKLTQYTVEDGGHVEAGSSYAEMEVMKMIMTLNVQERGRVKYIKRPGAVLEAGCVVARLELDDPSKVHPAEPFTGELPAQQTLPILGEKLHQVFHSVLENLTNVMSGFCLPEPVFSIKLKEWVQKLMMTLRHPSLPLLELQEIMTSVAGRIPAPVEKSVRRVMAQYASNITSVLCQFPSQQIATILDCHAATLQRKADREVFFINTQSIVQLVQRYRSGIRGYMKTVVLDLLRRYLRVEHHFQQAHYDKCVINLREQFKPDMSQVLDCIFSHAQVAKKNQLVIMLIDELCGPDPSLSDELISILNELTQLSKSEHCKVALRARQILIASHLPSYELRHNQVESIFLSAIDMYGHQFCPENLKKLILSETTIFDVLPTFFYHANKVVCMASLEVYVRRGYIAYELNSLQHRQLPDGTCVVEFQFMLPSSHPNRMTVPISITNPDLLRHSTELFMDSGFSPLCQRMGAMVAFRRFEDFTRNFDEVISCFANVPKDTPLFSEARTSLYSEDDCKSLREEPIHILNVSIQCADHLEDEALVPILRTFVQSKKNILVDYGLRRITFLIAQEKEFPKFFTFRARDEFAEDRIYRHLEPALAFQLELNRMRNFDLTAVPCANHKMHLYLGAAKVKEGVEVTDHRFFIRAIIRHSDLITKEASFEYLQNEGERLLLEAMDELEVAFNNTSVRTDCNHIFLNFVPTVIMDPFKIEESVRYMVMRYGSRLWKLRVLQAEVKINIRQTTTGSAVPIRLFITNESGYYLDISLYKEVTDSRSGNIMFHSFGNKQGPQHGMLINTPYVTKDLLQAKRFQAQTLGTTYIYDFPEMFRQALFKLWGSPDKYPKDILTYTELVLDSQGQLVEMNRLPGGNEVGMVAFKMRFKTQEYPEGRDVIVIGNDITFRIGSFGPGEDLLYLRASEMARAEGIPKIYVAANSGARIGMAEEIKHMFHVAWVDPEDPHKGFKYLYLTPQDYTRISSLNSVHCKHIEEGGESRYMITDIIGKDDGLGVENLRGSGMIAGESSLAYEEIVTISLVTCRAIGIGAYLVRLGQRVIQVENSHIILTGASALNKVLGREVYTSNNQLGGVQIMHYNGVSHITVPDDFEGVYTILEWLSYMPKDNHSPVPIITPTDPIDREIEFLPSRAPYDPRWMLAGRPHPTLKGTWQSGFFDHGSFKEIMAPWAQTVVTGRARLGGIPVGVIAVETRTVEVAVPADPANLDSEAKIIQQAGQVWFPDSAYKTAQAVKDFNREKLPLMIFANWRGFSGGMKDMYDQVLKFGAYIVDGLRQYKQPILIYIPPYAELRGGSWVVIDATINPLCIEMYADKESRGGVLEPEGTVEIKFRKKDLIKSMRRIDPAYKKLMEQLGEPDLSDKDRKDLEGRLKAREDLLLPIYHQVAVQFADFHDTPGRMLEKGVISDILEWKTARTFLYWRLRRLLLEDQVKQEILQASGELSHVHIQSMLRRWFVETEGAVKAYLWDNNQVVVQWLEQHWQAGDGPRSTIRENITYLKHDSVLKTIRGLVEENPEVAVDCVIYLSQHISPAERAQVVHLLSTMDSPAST", "assay": "Human ACCβ enzyme activity / inhibition assay (radiometric)", "assay_type": "biochemical", "details": "for Effect on K0.5 of K-citrate / Effect on Vmax of the ACC enzyme reaction: titration of compound at 0.5, 1 and 2 times IC50", "protocol": "The cloning of the full length human muscle-type ACCβ cDNA and expression in HEK293 cells (ATCC, #CRL-1573) was performed as follows. The ACCβ cDNA was amplified by the polymerase chain reaction (PCR) and was cloned using standard recombinant DNA techniques. The PCR reaction was performed with the Expand Long Template PCR System (Roche Molecular Biochemicals, #1 681 8340) and 0.5 ng of cDNA from human skeletal muscle as template. The primers used for PCR amplification were designed on the basis of the published sequence of the human ACCβ cDNA isolated from a human liver cDNA library (Abul-Elheiga et al. J. Biol Chem. 272, 10669-10677, 1997). The sequence of the forward primer ACCB1 was 5′-[…]-3′; it includes a NheI restriction cleavage site for subcloning and a Kozak translation initiation consensus sequence preceding the ATG start codon. The sequence of the reverse primer ACCB8 was 5′-[…]-3′; it includes a stop codon and a XhoI restriction cleavage site for subcloning. The amplified DNA fragment of approximately 7.4 kb was cloned into a mammalian expression vector. The resulting plasmid isolates, pRF33A, B, C, D, and E were individually transfected in human embryonic kidney 293 cells (HEK293) using a standard lipid transfection method. Cell extracts of transfected cells were prepared in a lysis buffer containing 0.4 mg/ml digitonin and enzyme activity was determined using a radiometric ACC activity assay as described below. Plasmid pRF33D gave the highest activity and was chosen for large scale transfections of HEK293 cells and enzyme purification.\nSince ACC enzyme activities in crude cell lysates were very low, enrichment of ACCβ enzyme expressed in HEK293 cells was achieved by a single anion exchange chromatography step. Cell lysates were run over a 5 ml Econo Pac High Q column (Bio-Rad, #732-0027). Bound proteins were eluted by a gradient of NaCl from 0 to 1 M in 50 mM Tris-HCl, pH 7.5, 1 mM DTT, 5% glycerol. Fractions containing high ACCβ enzyme activity were pooled and stored at −20° C.\nStandard ACCβ enzyme assays, in a total volume of 100 μl, contained 50 mM HEPES-KOH, pH 7.5, 10 mM K-citrate, 10 mM MgSO4, 1 mM ATP, 0.1 mM DTT, 2% DMSO, 0.1 mg/ml fatty acid-free BSA, 0.2 mM acetyl-CoA, 2 mM KHCO3, 0.2 mM [^14C]NaHCO3 (50-60 mCi/mmol) and cell lysate or purified ACCβ enzyme. Reactions were incubated at 37° C. for 45 min. and stopped by the addition of 50 μl of 2 N HCl. Terminated reactions were incubated at 50° C. over night to evaporate non-incorporated [^14C]NaHCO3. [^14C]-labeled malonyl-CoA reaction product was quantitated by liquid scintillation counting after the addition of 20 μl of Microscint 20 (Canberra Packard, #6013621) on a TopCount NXT microplate scintillation counter (Canberra Packard).\nInhibition of ACCβ activity was determined at saturating substrate concentrations with two-fold serial dilutions of test compounds spanning a concentration range of at least two log units. IC50 values were calculated with the GraFit software (Erithacus Software Ltd.). Kinetic parameters (Km, Vmax and K0.5) were determined by varying one substrate (or allosteric effector) in a two-fold serial dilution over a concentration range of at least two log units while keeping all other substrates at constant saturating concentrations. Fitting to the Michaelis-Menten equation (for calculation of Km of substrates) and fitting to the Hill equation (for calculation of K0.5of the allosteric activator K-citrate) was done with the GraFit software. To determine the mode of action of Soraphens, determinations of Km for ATP and acetyl-CoA and of K0.5 for K-citrate were repeated in the absence and in the presence of the three different Soraphens at 0.5, 1 and 2 times their IC50 and the data were fitted to the equation for non-competitive inhibition with the GraFit software."}, "HepG2 cells": {"system": "HepG2 cells", "assay": "Fatty acid (palmitate) oxidation assay with human liver hepatoma cells HepG2", "assay_type": "cell-based", "details": "HepG2, 10 μM", "protocol": "For routine passaging, HepG2 cells (American Type Culture Collection, ATCC) were grown in T75 flasks (Falcon, #353136) in 15 ml of Dulbecco's modified Eagle medium (DMEM, Sigma, #D5796), containing 10% heat inactivated fetal bovine serum (FBS, Summit Biotechnology, #S-100-05) and 1% Penicillin/Streptomycin (Sigma, #P4333). […] The cells were passaged once per week by trypsinization and an additional change of medium was done after 3 to 4 days after passaging."}, "differentiated L6 cells": {"system": "differentiated L6 cells", "assay": "Fatty acid (palmitate) oxidation assay with differentiated rat L6 muscle cells;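 further: differentiated rat L6 myotubes fed [14C]-palmitate, with oxidation read as 14CO2 trapped on filters and counted by liquid scintillation after 3 to 8 h at 37 °C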"}, "[1]": {"details": "L6, repeated test Table 3, 0.002 μM"}, "[2]": {"details": "L6, repeated test Table 3, 0.02 μM"}, "[3]": {"details": "L6, repeated test Table 3, 0.2 μM"}}}
{"smiles": "CO[C@H]1CCCC[C@@H](c2ccccc2)OC(=O)[C@@H](C)C2(O)O[C@H]([C@@H](C)[C@H](O)[C@H]2OC)[C@@H](C)/C=C/[C@H]1OC", "note": "[Cpd (Ia), Soraphen A 1-α]", "values": [{"measurement": "IC50", "setting": "human ACCβ enzyme", "result": 3, "unit": "nM"}, {"measurement": "Effect on K0.5 of K-citrate", "setting": "human ACCβ enzyme", "result": "did not change"}, {"measurement": "Effect on Vmax of the ACC enzyme reaction", "setting": "human ACCβ enzyme", "result": "dose-dependent decrease"}, {"measurement": "Effect on K0.5 of K-citrate", "setting": "human ACCβ enzyme; listed as Soraphen A 1-α", "result": "little effect"}, {"measurement": "Effect on Vmax of the ACC enzyme reaction", "setting": "human ACCβ enzyme; listed as Soraphen A 1-α", "result": "reduced"}, {"measurement": "Fold stimulation over palmitate oxidation rate in the absence of test compounds", "setting": "HepG2 cells", "result": 3.5, "unit": "fold"}, {"measurement": "Palmitate oxidation rate", "setting": "HepG2 cells", "result": "13.7 +/− 0.7 pmol · h^−1 · well^−1"}, {"measurement": "Fold stimulation", "setting": "differentiated L6 cells; L6, Table 2, 0.02 μM", "result": 1.8, "unit": "fold"}, {"measurement": "Palmitate oxidation rate", "setting": "differentiated L6 cells; L6, Table 2, 0.02 μM", "result": "16.4 +/− 1.0 pmol · h^−1 · well^−1"}, {"measurement": "Fold stimulation", "setting": "differentiated L6 cells; L6, Table 2, 0.2 μM", "result": 1.8, "unit": "fold"}, {"measurement": "Palmitate oxidation rate", "setting": "differentiated L6 cells; L6, Table 2, 0.2 μM", "result": "15.8 +/− 0.5 pmol · h^−1 · well^−1"}, {"measurement": "Fold stimulation", "setting": "differentiated L6 cells; L6, Table 2, 2 μM", "result": 1.7, "unit": "fold"}, {"measurement": "Palmitate oxidation rate", "setting": "differentiated L6 cells; L6, Table 2, 2 μM", "result": "14.9 +/− 0.4 pmol · h^−1 · well^−1"}, {"measurement": "Fold stimulation", "setting": "differentiated L6 cells; [1]", "result": 1.5, "unit": "fold"}, {"measurement": "Palmitate oxidation rate", "setting": "differentiated L6 cells; [1]", "result": "8.3 +/− 0.0 pmol · h^−1 · well^−1"}, {"measurement": "Fold stimulation", "setting": "differentiated L6 cells; [2]", "result": 2.2, "unit": "fold"}, {"measurement": "Palmitate oxidation rate", "setting": "differentiated L6 cells; [2]", "result": "12.1 +/− 1.0 pmol · h^−1 · well^−1"}, {"measurement": "Fold stimulation", "setting": "differentiated L6 cells; [3]", "result": 2.7, "unit": "fold"}, {"measurement": "Palmitate oxidation rate", "setting": "differentiated L6 cells; [3]", "result": "14.6 +/− 0.1 pmol · h^−1 · well^−1"}, {"measurement": "EC50", "setting": "differentiated L6 cells; Rattus norvegicus, L6, read-out: EC50 for stimulation of palmitate oxidation", "result": "2 to 20", "unit": "nM"}]}
